Results published in US20120309087A1, “CANCER THERAPY” (University Court of The University of Dundee, priority 2006, published 2012).
Read-outs that look alike come from different tables or passages of the source.

Legend:
[1] = test system: ARE-driven luciferase activity in AREc32 cells; test: Induction of ARE-driven luciferase activity in stable AREc32 reporter cells; format: cell-based, human; conditions: for CD, concentration of inducting agent that doubled luciferase reporter activity: DMSO set at 1
[2] = test system: AKR1C and NQO1 protein in MCF7 cells; test: AKR1C and NQO1 protein in MCF7 cells (Western blots); format: cell-based, human; conditions: 24 hrs
Method: Method: AREc32 cells were seeded out in 96 well plates and treated with DMSO (control), tBHQ (50 μM), tBHQ+BTB09463 (5 μM) or tBHQ+Retinoic acid (1 μM). After 24 hours incubation, cells were washed and lysed before measuring luciferase activity. BTB09463 is 1-{4-[(3,4-dichlorobenzyl)oxy]phenyl}ethan-1-one. […] Method: AREc32 cells were seeded out in 96 well plates and dosed with BTB09463 (2.5, 5 or 10 μM) for 0, 24 or 48 hrs before treatment with tBHQ (50 μM). 24 hours after the addition of tBHQ, cells were washed and lysed before measuring luciferase activity. […] Method: ARE c32 cells were seeded out in 96 well plates and treated with DMSO (control), tBHQ (50 μM), tBHQ+retinoid (0.25, 0.5 and 1 μM). After 24 hours incubation, cells were washed and lysed before measuring luciferase activity. […] See FIG. 16 Method: A. Caco-2 cells were treated with the known ARE-gene inducer sulforaphane (5 μM), either alone or concomitantly with BTB09463 (5 μM) or Retinoic acid (1 μM). After 24 hrs, cell lysates were prepared and Western blotting performed to measure the levels of AKR1C protein. B. MCF7 cells were treated with sulforaphane (5 μM), either alone or concomitantly with BTB09463 (5 μM). After 24 hrs, cell lysates were prepared and Western blots performed to detect the levels of AKR1C and NQO1; GAPDH was used as a loading control in MCF7 cells. […] Method: Caco-2 cells were treated with DMSO (control), BTB09463 (5 μM), sulforaphane (5 μM) or a combination of sulforaphane plus BTB09463. After 24 hrs treatment, cells were harvested and RNA isolated. cDNA for each sample was generated by reverse transcription and subsequently used in real time PCR analysis of gene transcription (TaqMan analysis) for the ARE-driven genes AKR1C1 and NQO1. Data was normalised to the internal control 18S RNA and the relative levels of AKR1C1 and NQO1 calculated using the comparative CT method. […] Method: MCF7 cells were treated with the known ARE-gene inducer sulforaphane (5 μM), either alone or with various retinoids (0.5 μM). After 24 hrs, cell lysates were prepared and Western blots were performed to detect the levels of AKR1C protein present. […] See FIG. 19 Method: ARE reporter cell line AREc23 was seeded into 96 well plates and treated with a previously determined non-toxic concentration of cytotoxic drug. After 24 hours incubation, cells were washed and lysed before measuring luciferase activity. […] See FIG. 20a Method: ARE reporter cell line AREc23 was seeded into 96 well plates and treated with DMSO (control), Carmustine (100 μM), Carmustine+BTB09463 (5 μM) or Carmustine+Retinoic acid (5 μM) After 24 hours incubation, cells were washed and lysed before measuring luciferase activity. […] After 24 hours incubation, cells were washed and lysed before measuring luciferase activity. B. Modified repeat of experiment A, with cells being pretreated with L-buthionine-(SR)-sulfoximine (BSO), an inhibitor of enzymes in the glutathione synthesis pathway. After 24 hours incubation, cells were washed and lysed before measuring luciferase activity. […] Method: Caco-2 cells were treated for 24 hrs with DMSO (control), Carmustine (100 μM), Carmustine+BTB09463 (5 μM). After 24 hrs, cell lysates were prepared and Western blots to detect the levels of AKR1C. […] Method: MCF7 cells were treated for 24 hrs with DMSO (control; Lane 1), Sulforaphane (5 μM) (Lane 2), Carmustine (100 μM) (Lane 3), Carmustine+BTB09463 (5 μM) (Lane 5). (Lane 4 represents experimental conditions irrelevant to the application). After 24 hrs, cell lysates were prepared and Western blots to detect the levels of Nrf2, NQO1 and AKR1C proteins.

MCF7 cells = test: cells; format: cell-based
[3] = test system: AKR1C protein in Caco-2 cells; test: AKR1C protein in Caco-2 cells (Western blotting); format: cell-based, human; conditions: Carmustine 100 μM, 24 hrs
Method: Method: AREc32 cells were seeded out in 96 well plates and treated with DMSO (control), tBHQ (50 μM), tBHQ+BTB09463 (5 μM) or tBHQ+Retinoic acid (1 μM). After 24 hours incubation, cells were washed and lysed before measuring luciferase activity. BTB09463 is 1-{4-[(3,4-dichlorobenzyl)oxy]phenyl}ethan-1-one. […] Method: AREc32 cells were seeded out in 96 well plates and dosed with BTB09463 (2.5, 5 or 10 μM) for 0, 24 or 48 hrs before treatment with tBHQ (50 μM). 24 hours after the addition of tBHQ, cells were washed and lysed before measuring luciferase activity. […] Method: ARE c32 cells were seeded out in 96 well plates and treated with DMSO (control), tBHQ (50 μM), tBHQ+retinoid (0.25, 0.5 and 1 μM). After 24 hours incubation, cells were washed and lysed before measuring luciferase activity. […] See FIG. 16 Method: A. Caco-2 cells were treated with the known ARE-gene inducer sulforaphane (5 μM), either alone or concomitantly with BTB09463 (5 μM) or Retinoic acid (1 μM). After 24 hrs, cell lysates were prepared and Western blotting performed to measure the levels of AKR1C protein. B. MCF7 cells were treated with sulforaphane (5 μM), either alone or concomitantly with BTB09463 (5 μM). After 24 hrs, cell lysates were prepared and Western blots performed to detect the levels of AKR1C and NQO1; GAPDH was used as a loading control in MCF7 cells. […] Method: Caco-2 cells were treated with DMSO (control), BTB09463 (5 μM), sulforaphane (5 μM) or a combination of sulforaphane plus BTB09463. After 24 hrs treatment, cells were harvested and RNA isolated. cDNA for each sample was generated by reverse transcription and subsequently used in real time PCR analysis of gene transcription (TaqMan analysis) for the ARE-driven genes AKR1C1 and NQO1. Data was normalised to the internal control 18S RNA and the relative levels of AKR1C1 and NQO1 calculated using the comparative CT method. […] Method: MCF7 cells were treated with the known ARE-gene inducer sulforaphane (5 μM), either alone or with various retinoids (0.5 μM). After 24 hrs, cell lysates were prepared and Western blots were performed to detect the levels of AKR1C protein present. […] See FIG. 19 Method: ARE reporter cell line AREc23 was seeded into 96 well plates and treated with a previously determined non-toxic concentration of cytotoxic drug. After 24 hours incubation, cells were washed and lysed before measuring luciferase activity. […] See FIG. 20a Method: ARE reporter cell line AREc23 was seeded into 96 well plates and treated with DMSO (control), Carmustine (100 μM), Carmustine+BTB09463 (5 μM) or Carmustine+Retinoic acid (5 μM) After 24 hours incubation, cells were washed and lysed before measuring luciferase activity. […] After 24 hours incubation, cells were washed and lysed before measuring luciferase activity. […]

A549 cells = test: Cytotoxicity in A549 cells (ATP levels, 72 h); format: cell-based, human; conditions: Homo sapiens, single agent
[4] = test system: AKR1C mRNA in AREc32 cells; test: AKR1C mRNA in AREc32 cells (TaqMan); conditions: 24 h; for mRNA level of AKR1C (in words): without pre-treatment with BSO
Fas-induced killing = conditions: WO 01/57189; cited from earlier work
[5] = AREc32, 24 h, grouping of drugs by effect on luciferase activity

Structure (SMILES)	CD, concentration of inducting agent that doubled luciferase reporter activity ([1]; AREc32, 24 h)	Type of modulation [1, 5]	effect on luciferase activity in AREc32 cells (in words) ([1]; 24 h, sub-lethal doses, no BSO)	other results
CCOc1ccc2ccc(=O)oc2c1 [7-ethoxycoumarin]	100 µM	–	–	–
COc1cc(C)c(/C=C/C(C)=C/C=C/C(C)=C/C(=O)O)c(C)c1C [Acitretin]	–	–	–	sulforaphane-induced AKR1C protein ([2]; sulforaphane 5 μM + retinoid 0.5 μM): reduced the expression of sulforaphane-induced AKR1C; synergy with Bleomycin (cell killing, isobologram) (MCF7 cells; 72 hrs): very potent, synergistic increase in cell killing
C=CC=O [Acrolein]	2 µM	Strong inducer	–	increase in luciferase activity ([1]; 10 μM acrolein): 27 fold
O=NN(CCCl)C(=O)NCCCl [BCNU, carmustine]	–	Weak inducers	stronger inducing agent	induction of ARE-driven luciferase activity ([1]; previously determined non-toxic concentration, 24 hours): 4.5 fold; NQO1 and AKR1C protein expression ([2]; Carmustine 100 μM): caused over-expression of NQO1 and AKR1C protein; AKR1C protein expression [3]: massive induction; IC50 (A549 cells): > 1.5 mM; induction of AKR1C mRNA ([4]; without BSO, 100 μM BCNU): 3 fold; IC50 (MCF7 cells; Homo sapiens, single agent): 291 µM
COc1ccc(O)c(C(C)(C)C)c1 [BHA]	20 µM	–	–	–
O=C(O)CCCc1ccc(N(CCCl)CCCl)cc1 [Chlorambucil]	–	Weak inducers	weak inducers	mRNA level of AKR1C (in words) [4]: only slightly increased
N.N.[Cl][Pt][Cl] [Cisplatin]	–	Weak inducers	–	induction of luciferase activity after BSO pre-treatment ([1]; 50 μM BSO 24 h, then 10 μM cisplatin, 20 μM melphalan, 100 μM BCNU or 100 μM chlorambucil 24 h): 3 fold; mRNA level of AKR1C (in words) [4]: only slightly increased
O=P1(N(CCCl)CCCl)NCCCO1 (stereo not shown) [Cyclophosphamide]	–	–	–	Type of modulation [1]: Inactive; effect on luciferase activity in AREc32 cells (in words) [1]: did not have any effect
O=c1oc2ccccc2c(O)c1Cc1c(O)c2ccccc2oc1=O [Dirumarol]	–	–	–	protection conferred by Nrf2 against Fas-induced killing (Fas-induced killing): antagonise protection conferred by Nrf2 against Fas-induced killing
COc1cccc2c1C(=O)c1c(O)c3c(c(O)c1C2=O)C[C@@](O)(C(=O)CO)C[C@@H]3O[C@H]1C[C@H](N)[C@H](O)[C@H](C)O1 [Doxorubicin]	–	Inactive	no effect	–
COc1cccc2c1C(=O)c1c(O)c3c(c(O)c1C2=O)C[C@@](O)(C(=O)CO)C[C@@H]3O[C@H]1C[C@H](N)[C@@H](O)[C@H](C)O1 [Epirubicin]	–	Inactive	no effect	–
CCOc1ccc2c(c1)C(C)=CC(C)(C)N2 [Ethoxyquin]	5 µM	–	–	–
COc1cc([C@@H]2c3cc4c(cc3[C@@H](O[C@@H]3O[C@@H]5CO[C@@H](C)O[C@H]5[C@H](O)[C@H]3O)[C@H]3COC(=O)[C@H]23)OCO4)cc(OC)c1O [Etopside, etoposide]	–	Weak inducers	modestly increased	effect of BSO pre-treatment on luciferase activity ([1]; 50 μM BSO 24 h before drug, data not shown): did not change luciferase activity significantly; Fold increase (luciferase activity relative to control value) ([1]; AREc32, 24 h, concentration of each drug given in column Conc., mean ± S.D.): 1.3 ± 0.07
OO [H2O2]	300 µM	–	–	–
